In patent publication US20250257041A1, “INDUCERS OF INTEGRATED STRESS RESPONSE TO TREAT CANCER” (The Board of Regents of The University of Texas System, priority 2022, published 2025) one finds IC50 data, which are given here for 24 compounds.

Each structure is given as a SMILES string. Where two headings read alike, the source gives them in different places.

One assay relates to HCT116 WT. As to the kind of experiment: Proliferation of HCT116 colorectal cell line, Cell TiterGlo. It counts as cell-based, human. A digest of the protocol: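 HCT116 colorectal cells, wild type, GCN2 CRISPR knockout, or wild type plus ISRIB; proliferation read by CellTiter-Glo luminescence. 10-point dose response in triplicate, IC50 reported; multiple values are independent experiments.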
On the technique in general: Cellular ATP, detected with luciferase, serves as a proxy for viable cell number.

The subject of another assay is HCT116 GCN2KO. As to the kind of experiment: Proliferation of HCT116 cells with GCN2 knocked out (CRISPR), Cell TiterGlo. It counts as cell-based, human. The following applies: Homo sapiens. The protocol: Briefly, compounds were tested for their effect on proliferation of HCT116 colorectal cell lines using Cell TiterGlo (Promega). Each compound was tested in a 10-point dose response experiment in triplicate. Multiple values in the column titled HCT116 WT reflect separate independent experiments. The three columns titled “HCT116 WT (repeat)”, “HCT116-CGN2KO” and “HCT116 WT+ISRIB” provide data for selected compounds that were tested simultaneously under three conditions. The HCT116 WT column lists IC50 against the wild type HCT116 colorectal cancer cell line. The HCT116-CGN2KO lists IC50 data for cells in which one component of the integrated stress response, GCN2, has been knocked out using CRISPR technology.

Where [1] appears, read: Homo sapiens, HCT-116, wild type HCT116, 10-point dose response in triplicate, multiple values = separate independent experiments, read-out: HCT116 IC50 (uM) HCT116 WT.
The mark [2] stands for this setting: Homo sapiens, HCT-116, wild type HCT116, tested simultaneously with GCN2KO and +ISRIB, read-out: HCT116 IC50 (uM) HCT116 WT (repeat).
Where [3] appears, read: wild type HCT116, compound plus 10 nM of ISRIB, read-out: HCT116 IC50 (uM) HCT116 WT + ISRIB.
[4] abbreviates: HCT-116, HCT116 cells with GCN2 knocked out using CRISPR, read-out: HCT116 IC50 (uM) HCT116 − GCN2KO.

As for `C#CCOc1cccc(C(=O)Nc2ccc(-c3cc(NC(=O)c4ccc(N=[N+]=[N-])cc4)n(C)n3)cc2)c1` [SW393065, N-(4-(5-(4-Azidobenzamido)-1-methyl-1H-pyrazol-3-yl)phenyl)-3-(prop-2-yn-1-yloxy)benza-mide], the IC50 stood at 3 µM in the assay with HCT116 WT (setting [1]), 3.73 µM with HCT116 WT (setting [2]), 3.26 µM with HCT116 WT (setting [3]) and 3.23 µM with HCT116 GCN2KO (setting [4]).
Take `COC(=O)c1cccc(C(=O)Nc2ccc(-c3cc(NC(=O)c4ccccc4)n(C)n3)cc2)c1` [SW393068, methyl 3-((4-(5-benzamido-1-methyl-1H-pyrazol-3-yl)phenyl)carbamoyl)benzoate]: the half-maximal inhibitory concentration (IC50) in the assay with HCT116 WT (setting [1]) was 8.3 µM; with HCT116 WT (setting [2]) it was 13.6 µM; in the assay with HCT116 GCN2KO (setting [4]), 47 µM.
Regarding `Cn1nc(-c2ccc(NC(=O)c3cccc(C#N)c3)cc2)cc1NC(=O)c1ccccc1` [SW393069, N-(4-(5-benzamido-1-methyl-1H-pyrazol-3-yl)phenyl)-3-cyanobenzamide], the IC50 in the assay on HCT116 WT (setting [1]) worked out at 17 µM; with HCT116 WT (setting [2]) it was 7.43 µM; in the assay with HCT116 WT (setting [3]), 12.7 µM; with HCT116 GCN2KO (setting [4]), 15.2 µM.
For `Cn1nc(-c2ccc(NS(=O)(=O)c3ccccc3)cc2)cc1NC(=O)c1ccccc1` [SW393070, N-(1-methyl-3-(4-(phenylsulfonamido)phenyl)-1H-pyrazol-5-yl)benzamide] the same measures were 16 µM, 9.06 µM, 23.3 µM and 22 µM.
For `Cn1nc(-c2ccc(NC(=O)c3ccc(Cl)cc3)cc2)cc1NC(=O)c1ccccc1` [SW393072, N-(4-(5-benzamido-1-methyl-1H-pyrazol-3-yl)phenyl)-4-chlorobenzamide] the same measures were 3.3 µM, 2.83 µM, 13.8 µM and 11.1 µM.
For the compound `COC(=O)c1ccc(C(=O)Nc2ccc(-c3cc(NC(=O)c4ccccc4)n(C)n3)cc2)cc1` [SW393073, methyl 4-((4-(5-benzamido-1-methyl-1H-pyrazol-3-yl)phenyl)carbamoyl)benzoate], the IC50 is 14 µM in the assay with HCT116 WT (setting [1]), 8 µM with HCT116 WT (setting [2]) and at least 50 µM in the assay on HCT116 GCN2KO (setting [4]).
As to `Cn1nc(-c2ccc(NC(=O)c3ccccc3C(F)(F)F)cc2)cc1NC(=O)c1ccccc1` [SW393124, N-(4-(5-benzamido-1-methyl-1H-pyrazol-3-yl)phenyl)-2-(trifluoromethyl)benzamide], the IC50 in the assay on HCT116 WT (setting [1]) turned out to be 0.008 µM; in the assay with HCT116 WT (setting [2]) it was 0.02 µM; in the assay with HCT116 WT (setting [3]) it was 0.09 µM; in the assay on HCT116 GCN2KO (setting [4]), 0.08 µM.
`C#CCOc1cccc(C(=O)Nc2cc(-c3ccc(NC(=O)c4ccccc4Cl)cc3)nn2C)c1` [SW393125, 2-Chloro-N-(4-(1-methyl-5-(3-(prop-2-yn-1-yloxy)benzamido)-1H-pyrazol-3-yl)phenyl)benz-amide]: the half-inhibitory concentration (IC50) in the assay with HCT116 WT (setting [1]) was 0.012 µM; in the assay on HCT116 WT (setting [2]), 0.03 µM; in the assay on HCT116 WT (setting [3]) it was 0.07 µM; with HCT116 GCN2KO (setting [4]), 0.07 µM.
For `Cn1nc(-c2ccc(NC(=O)c3ccccn3)cc2)cc1NC(=O)c1ccccc1` [SW393126, N-(4-(5-benzamido-1-methyl-1H-pyrazol-3-yl)phenyl)picolinamide], the IC50 with HCT116 WT (setting [1]) was 3.32 µM; in the assay with HCT116 WT (setting [2]), 7.17 µM; in the assay with HCT116 WT (setting [3]), 25.8 µM; with HCT116 GCN2KO (setting [4]), 32.9 µM.
In the case of `Cn1nc(-c2ccc(NC(=O)c3cccnc3)cc2)cc1NC(=O)c1ccccc1` [SW393127, N-(4-(5-benzamido-1-methyl-1H-pyrazol-3-yl)phenyl)nicotinamide], the IC50 with HCT116 WT (setting [1]) was determined as 0.5 µM; in the assay on HCT116 WT (setting [2]) it was 1.46 µM; in the assay on HCT116 WT (setting [3]), 7.5 µM; with HCT116 GCN2KO (setting [4]), 6.64 µM.
Consider `Cn1nc(-c2ccc(NC(=O)c3ccccc3)cc2)cc1NC(=O)c1cccnc1` [SW393128, N-(3-(4-benzamidophenyl)-1-methyl-1H-pyrazol-5-yl)nicotinamide], for which the half-inhibitory concentration (IC50) in the assay on HCT116 WT (setting [1]) came to 0.2 µM; in the assay with HCT116 WT (setting [2]) it was 0.48 µM; in the assay on HCT116 WT (setting [3]), 3.73 µM; with HCT116 GCN2KO (setting [4]) it was 4.05 µM.
For `Cn1nc(-c2ccc(NC(=O)c3ccccc3)cc2)cc1NC(=O)c1ccncc1` [SW393129, N-(3-(4-benzamidophenyl)-1-methyl-1H-pyrazol-5-yl)isonicotinamide] the same measures were 0.95 µM, 2.11 µM, 4.03 µM and 4.72 µM.
In the case of `COC(=O)c1ccc(C(=O)Nc2cc(-c3ccc(NC(=O)c4ccccc4)cc3)nn2C)cc1` [SW393130, methyl 4-((3-(4-benzamidophenyl)-1-methyl-1H-pyrazol-5-yl)carbamoyl)benzoate], the IC50 was 0.92 µM in the assay on HCT116 WT (setting [1]), 1.87 µM in the assay on HCT116 WT (setting [2]) and at least 50 µM with HCT116 GCN2KO (setting [4]).
Regarding `Cn1nc(-c2ccc(NC(=O)c3ccccc3)cc2)cc1NC(=O)c1ccc(Cl)cc1` [SW393132, N-(3-(4-benzamidophenyl)-1-methyl-1H-pyrazol-5-yl)-4-chlorobenzamide], the 50% inhibitory concentration (IC50) in the assay on HCT116 WT (setting [1]) is over 50 µM; with HCT116 WT (setting [2]) it was at least 50 µM; in the assay with HCT116 GCN2KO (setting [4]), at least 50 µM.
With `Cn1nc(-c2ccc(NC(=O)c3ccccc3Br)cc2)cc1NC(=O)c1ccccc1` [SW393133, N-(4-(5-benzamido-1-methyl-1H-pyrazol-3-yl)phenyl)-2-bromobenzamide], the IC50 turned out to be 0.01 µM in the assay with HCT116 WT (setting [1]), 0.03 µM with HCT116 WT (setting [2]), 0.3 µM in the assay on HCT116 WT (setting [3]) and 0.21 µM with HCT116 GCN2KO (setting [4]).
On the same counts, the results for `Cc1ccccc1C(=O)Nc1ccc(-c2cc(NC(=O)c3ccccc3)n(C)n2)cc1` [SW393134, N-(4-(5-benzamido-1-methyl-1H-pyrazol-3-yl)phenyl)-2-methylbenzamide] are 0.012 µM, 0.02 µM, 0.19 µM and 0.17 µM.
As to `C#CCOc1ccc(C(=O)c2cccc(C(=O)Nc3cc(-c4ccc(NC(=O)c5ccccc5Cl)cc4)nn3C)c2)cc1` [SW393141, 2-Chloro-N-(4-(1-methyl-5-(3-(4-(prop-2-yn-1-yloxy)benzoyl)benzamido)-1H-pyrazol-3-yl)phenyl)benzamide], the IC50 in the assay with HCT116 WT (setting [1]) came out at 0.12 µM; in the assay with HCT116 WT (setting [2]) it was 0.3 µM; with HCT116 WT (setting [3]), 0.41 µM; in the assay on HCT116 GCN2KO (setting [4]) it was 0.49 µM.
Regarding `Cn1nc(-c2ccc(NC(=O)c3ccccc3Cl)cc2)cc1NC(=O)c1ccc(C2(C(F)(F)F)N=N2)cc1` [SW393142, 2-Chloro-N-(4-(1-methyl-5-(4-(3-(trifluoromethyl)-3H-diazirin-3-yl)benzamido)-1H-pyrazol-3-yl)phenyl)benzamide], the concentration for half-maximal inhibition (IC50) with HCT116 WT (Homo sapiens, HCT-116, read-out: HCT116 IC50 (uM) HCT116 WT) turned out to be 3.6 µM; in the assay with HCT116 WT (Homo sapiens, HCT-116, read-out: HCT116 IC50 (uM) HCT116 WT (repeat)), 1.59 µM; in the assay on HCT116 WT (read-out: HCT116 IC50 (uM) HCT116 WT + ISRIB, wild type HCT116, compound plus 10 nM of ISRIB), 3.41 µM; in the assay with HCT116 GCN2KO (HCT-116, read-out: HCT116 IC50 (uM) HCT116 − GCN2KO), 3.22 µM.
In the case of `Cn1nc(-c2ccc(NC(=O)c3ccccc3[N+](=O)[O-])cc2)cc1NC(=O)c1ccccc1` [SW393143, N-(4-(5-benzamido-1-methyl-1H-pyrazol-3-yl)phenyl)-2-nitrobenzamide], the IC50 in the assay with HCT116 WT (setting [1]) stood at 0.01 µM; in the assay on HCT116 WT (setting [2]), 0.02 µM; with HCT116 WT (setting [3]), 0.14 µM; in the assay on HCT116 GCN2KO (setting [4]), 0.12 µM.
On to `Cn1nc(-c2ccc(NC(=O)c3c(Cl)cccc3Cl)cc2)cc1NC(=O)c1ccccc1` [SW393144, N-(4-(5-benzamido-1-methyl-1H-pyrazol-3-yl)phenyl)-2,6-dichlorobenzamide], for which the IC50 stood at 0.13 µM in the assay with HCT116 WT (setting [1]), 0.43 µM with HCT116 WT (setting [2]), 2.55 µM in the assay with HCT116 WT (setting [3]) and 2.31 µM in the assay on HCT116 GCN2KO (setting [4]).
For `C#CCOc1ccccc1C(=O)Nc1ccc(-c2cc(NC(=O)c3ccccc3)n(C)n2)cc1` [SW393168, N-(4-(5-benzamido-1-methyl-1H-pyrazol-3-yl)phenyl)-2-(prop-2-yn-1-yloxy)benzamide], the half-maximal inhibitory concentration (IC50) in the assay with HCT116 WT (setting [1]) is 0.34 µM; in the assay on HCT116 WT (setting [2]) it was 1.02 µM; in the assay on HCT116 WT (setting [3]), 3.23 µM; in the assay on HCT116 GCN2KO (setting [4]), 2.95 µM.
On the same counts, the results for `CSc1ccccc1C(=O)Nc1ccc(-c2cc(NC(=O)c3ccccc3)n(C)n2)cc1` [SW393169, N-(4-(5-benzamido-1-methyl-1H-pyrazol-3-yl)phenyl)-2-(methylthio)benzamide] are 0.01 µM, 0.06 µM, 0.49 µM and 0.41 µM.
On the same counts, the results for `Cn1nc(-c2ccc(NC(=O)c3ccccc3N=[N+]=[N-])cc2)cc1NC(=O)c1ccccc1` [SW393170, N-(4-(5-benzamido-1-methyl-1H-pyrazol-3-yl)phenyl)-2-azidobenzamide] are 0.03 µM, 0.12 µM, 0.84 µM and 0.93 µM.
On the same counts, the results for `Cn1nc(-c2ccc(NC(=O)c3cc(N=[N+]=[N-])ccc3Cl)cc2)cc1NC(=O)c1ccccc1` [SW393171, 5-azido-N-(4-(5-benzamido-1-methyl-1H-pyrazol-3-yl)phenyl)-2-chlorobenzamide] are 0.19 µM, 0.49 µM, 2.33 µM and 2.78 µM.

The IC50 is the point on the concentration scale where inhibition reaches its midpoint.
